Results published in ChEMBL document CHEMBL1287775, “Stereoselective synthesis of hexahydro-3-methyl-1-arylchromeno[3,4-b]pyrrole and its annulated heterocycles as potent antimicrobial agents for human pathogens” (2010).
Values after ≈ are worked out from the molar mass of the structure shown.

Tests used:
Bacillus subtilis = assay: Antimicrobial activity against Bacillus subtilis by well diffusion method; type: functional
Staphylococcus aureus = assay: Antimicrobial activity against Staphylococcus aureus by well diffusion method; type: functional
Aspergillus sp. = assay: Antimicrobial activity against Aspergillus sp. by poison food technique; type: functional
Salmonella typhi = assay: Antimicrobial activity against Salmonella typhi by well diffusion method; type: functional, Salmonella enterica subsp. enterica serovar Typhi; conditions: Salmonella enterica
Shigella sp. = assay: Antimicrobial activity against Shigella sp. by well diffusion method; type: functional
Streptococcus pneumoniae = assay: Antimicrobial activity against Streptococcus pneumoniae by well diffusion method; type: functional
Candida albicans = assay: Antimicrobial activity against Candida albicans by poison food technique; type: functional
Trichoderma = assay: Antimicrobial activity against Trichoderma sp. by poison food technique; type: functional
Escherichia coli = assay: Antimicrobial activity against Escherichia coli by well diffusion method; type: functional

Structure (SMILES)	MIC (Bacillus subtilis)	MIC (Staphylococcus aureus)	MIC (Aspergillus sp.)	MIC (Salmonella typhi)	MIC (Shigella sp.)	MIC (Streptococcus pneumoniae)	MIC (Candida albicans)	MIC (Trichoderma)	MIC (Escherichia coli)
CN1C[C@H](C(=O)c2ccc(Cl)cc2)[C@H]2c3ccccc3OC[C@H]21	15 µg/mL (≈ 45.8 µM)	20 µg/mL (≈ 61 µM)	35 µg/mL (≈ 107 µM)	10 µg/mL (≈ 30.5 µM)	25 µg/mL (≈ 76.3 µM)	25 µg/mL (≈ 76.3 µM)	45 µg/mL (≈ 137 µM)	40 µg/mL (≈ 122 µM)	10 µg/mL (≈ 30.5 µM)
O=C(c1ccc(Cl)cc1)[C@@H]1[C@H]2c3ccccc3OC[C@H]2N2CCC[C@H]12	5 µg/mL (≈ 14.1 µM)	5 µg/mL (≈ 14.1 µM)	25 µg/mL (≈ 70.7 µM)	15 µg/mL (≈ 42.4 µM)	5 µg/mL (≈ 14.1 µM)	10 µg/mL (≈ 28.3 µM)	25 µg/mL (≈ 70.7 µM)	30 µg/mL (≈ 84.8 µM)	10 µg/mL (≈ 28.3 µM)
O=C(c1ccc(Cl)cc1)[C@@H]1[C@H]2c3ccccc3OC[C@H]2N2CSC[C@H]12	20 µg/mL (≈ 53.8 µM)	25 µg/mL (≈ 67.2 µM)	70 µg/mL (≈ 188 µM)	25 µg/mL (≈ 67.2 µM)	30 µg/mL (≈ 80.7 µM)	30 µg/mL (≈ 80.7 µM)	65 µg/mL (≈ 175 µM)	75 µg/mL (≈ 202 µM)	15 µg/mL (≈ 40.3 µM)
O=C(c1ccc(Cl)cc1)[C@@H]1[C@H]2c3ccccc3OC[C@H]2N2Cc3ccccc3C[C@H]12	5 µg/mL (≈ 12 µM)	5 µg/mL (≈ 12 µM)	25 µg/mL (≈ 60.1 µM)	15 µg/mL (≈ 36.1 µM)	20 µg/mL (≈ 48.1 µM)	15 µg/mL (≈ 36.1 µM)	20 µg/mL (≈ 48.1 µM)	45 µg/mL (≈ 108 µM)	10 µg/mL (≈ 24 µM)
CN1C[C@@]2(CCc3ccccc3C2=O)[C@H]2c3ccccc3OC[C@H]21	35 µg/mL (≈ 110 µM)	20 µg/mL (≈ 62.6 µM)	85 µg/mL (≈ 266 µM)	55 µg/mL (≈ 172 µM)	45 µg/mL (≈ 141 µM)	60 µg/mL (≈ 188 µM)	75 µg/mL (≈ 235 µM)	105 µg/mL (≈ 329 µM)	25 µg/mL (≈ 78.3 µM)
O=C1c2ccccc2CC[C@]12[C@H]1c3ccccc3OC[C@H]1N1CCC[C@@H]12	70 µg/mL (≈ 203 µM)	65 µg/mL (≈ 188 µM)	75 µg/mL (≈ 217 µM)	60 µg/mL (≈ 174 µM)	75 µg/mL (≈ 217 µM)	55 µg/mL (≈ 159 µM)	95 µg/mL (≈ 275 µM)	110 µg/mL (≈ 318 µM)	50 µg/mL (≈ 145 µM)
O=C1c2ccccc2CC[C@]12[C@H]1c3ccccc3OC[C@H]1N1CSC[C@@H]12	55 µg/mL (≈ 151 µM)	45 µg/mL (≈ 124 µM)	75 µg/mL (≈ 206 µM)	60 µg/mL (≈ 165 µM)	70 µg/mL (≈ 193 µM)	40 µg/mL (≈ 110 µM)	90 µg/mL (≈ 248 µM)	105 µg/mL (≈ 289 µM)	65 µg/mL (≈ 179 µM)
O=C1c2ccccc2CC[C@]12[C@H]1c3ccccc3OC[C@H]1N1Cc3ccccc3C[C@@H]12	5 µg/mL (≈ 12.3 µM)	5 µg/mL (≈ 12.3 µM)	25 µg/mL (≈ 61.3 µM)	5 µg/mL (≈ 12.3 µM)	5 µg/mL (≈ 12.3 µM)	10 µg/mL (≈ 24.5 µM)	35 µg/mL (≈ 85.9 µM)	50 µg/mL (≈ 123 µM)	5 µg/mL (≈ 12.3 µM)
COC(=O)Nc1nc2ccccc2[nH]1 [CARBENDAZIM]	–	–	15 µg/mL (≈ 78.5 µM)	–	–	–	10 µg/mL (≈ 52.3 µM)	15 µg/mL (≈ 78.5 µM)	–
CN(C)[C@@H]1C(O)=C(C(N)=O)C(=O)[C@@]2(O)C(O)=C3C(=O)c4c(O)cccc4[C@@](C)(O)[C@H]3C[C@@H]12 [TETRACYCLINE]	10 µg/mL (≈ 22.5 µM)	15 µg/mL (≈ 33.8 µM)	–	25 µg/mL (≈ 56.3 µM)	15 µg/mL (≈ 33.8 µM)	20 µg/mL (≈ 45 µM)	–	–	10 µg/mL (≈ 22.5 µM)
